Results taken from patent US7883713B2, “Topical application of thiazolyl amides” (AiCuris GmbH & Co. KG, priority 2001, dated 2011).

What was measured:
HSV-1 = experiment: Ocular herpes model, HSV-1 infection; format: in vivo, mice (BALB/cABom); conditions: for number of survivors of 10 infected animals: HSV-1, day 16 after infection; for number of survivors of 10 infected animals / Pathology index HSV-1 infection (cumulative): topical ophthalmic 2% by weight suspension 5x a day, day 0 to day 4; for Pathology index HSV-1 infection (cumulative): day 0 to day 16, 10 animals; for efficacy of topical treatment (eye drops), in words: ocular HSV infection, efficacy applies to HSV-1
Method: (§1) To form a 2% by weight suspension, the active ingredients are mixed with Liquifilm eyedrops (Allergan, Ettlingen, Germany) (1 ml containing polyvinyl alcohol 14 mg, and as excipient chlorobutanol ½ H2O 5.25 mg, sodium chloride) and sonified in a glass tube in an ultrasonic bath at 15° C. for 15 min.
(§2) 6-week old female mice, strain BALB/cABom (weight 19 g) are purchased from a commercial breeder (M&B A/S, Denmark) and infected with HSV one week later. The animals are anesthetized in a leakproof glass vessel with diethyl ether (Merck). For the ocular infection, the cornea of the right eye is lightly scratched three times horizontally and three times vertically with a sterile needle (0.4×20 mm). The cornea pretreated in this way is inoculated with 5 μl of virus suspension (5×10^7 pfu HSV-2G, 7.5×10^7 pfu HSV-lwalki). The infected animals are checked each day and examined for signs of an HSV infection (blepharitis, keratitis, encephalitis). The pathology index is set at 1 for affected animals, and the pathology index is set at 0 for symptom-free animals. The particular pathology index of the group on the particular day is calculated by summation for all the animals in the group. The cumulative pathology index is calculated by totalling the pathology indices on individual days. The infection leads to the death of 90-100% of untreated animals due to a generalized infection with prominent central nervous symptoms an average of between 5 and 8 days. Moribund animals are euthanized. The treatment takes place starting 3 h after the infection 5× a day for 5 days by instilling 5 μl of a 2% by weight active ingredient suspension in Liquifilm© eye drops (Allergan, Ettlingen, Germany) (1 ml containing polyvinyl alcohol 14 mg, and as excipient chlorobutanol ½ H2O 5.25 mg, sodium chloride) into the infected right eye of the animal.

HSV-2 [1] = experiment: Ocular herpes model, HSV-2 infection; format: in vivo, mice (BALB/cABom); conditions: for number of survivors of 10 infected animals: HSV-2, day 16 after infection; for number of survivors of 10 infected animals / Pathology index HSV-2 infection (cumulative): topical ophthalmic 2% by weight suspension 5x a day, day 0 to day 4; for Pathology index HSV-2 infection (cumulative): day 0 to day 16, 10 animals; for efficacy of topical treatment (eye drops), in words: ocular HSV infection, efficacy applies to HSV-2
Method: as §1, §2

HSV-2 [2] = experiment: Zosteriform spread model, percutaneous HSV-2 infection; format: in vivo, hairless mice (C3H/TifBom-hr); conditions: for efficacy of topical treatment, in words: 2% by weight suspension in 30% isopropyl myristate, 70% ethanol; for Pathology index (cumulative): day 0 to day 21, 10 animals
Method: To form a 2% by weight suspension, the active ingredients are mixed with 30% by weight isopropyl myristate/70% by weight of ethanol and sonified in a glass tube in an ultrasonic bath at 15° C. for 15 min.
To produce the ointment preparation, wool alcohol ointment complying with DAB 9 is employed. The active ingredient is suspended in a molten mixture of 0.5 parts by weight of cetyl stearyl alcohol (quality complying with DAB 9), 6 parts by weight of wool wax alcohol (quality complying with DAB 9) and 93.5 parts by weight of white petrolatum (quality complying with DAB 9). The mixture is stirred while cooling to room temperature (about 21° C.).
To produce a so-called “PEG isogel” preparation, the active ingredient is suspended or dissolved in the melt a mixture of lower molecular weight polyethylene glycol (PEG) and higher molecular weight PEG.
A further gel preparation employed is a polyacrylate gel (so-called “carbogel”) which consists of 1 part by weight of Carbopol 974 P NF (manufacturer BF Goodrich, USA), […], 5 part by weight of 5% by weight (m/m) sodium hydroxide solution and 89 parts by weight of water. The preparation is produced by rubbing the Carbopol with the isopropanol, adding the active ingredient, and dispersing the mixture in water. The sodium hydroxide solution is added stepwise with stirring. A gel is formed.
6-week old female hairless mice (C3H/TifBom-hr) are purchased from a commercial breeder (M&B A/S, Denmark) and infected with HSV one week later. The animals are anesthetized with diethyl ether (Merck) in a leakproof glass vessel. For the dermal infection, the skin on the right flank or in the neck region of the animal is scratched 10× crosswise with a sterile needle (0.6×25 mm). The skin pretreated in this way is inoculated with 10 μl of virus suspension (1×10^6 pfu HSV-2G; 1.5×10^6 p fu HSV-lwalki). The animals are inspected each day, and the pathology index is determined by means of the following scale: 0: no visible signs of infection, 1: blistering, 2: slight spread in the dermatome (shingles), 3: large areas affected (shingles), 4: confluent shingles bands, 5: paralysis of the extremities, 6: death. The particular pathology index of the group on the particular day is calculated by forming the average for all the animals in the group. The cumulative pathology index is calculated by totalling the pathology indices for individual days. The infection leads to death of 90-100% of the untreated animals due to a generalized infection with prominent central nervous symptoms an average of between 5 and 8 days. Moribund animals are euthanized. […]

[3] = HSV-2, right flank, 2% by weight suspension in 30% isopropyl myristate/70% ethanol on skin 2x a day, day 0 to day 4

Row | Structure (SMILES) | number of survivors of 10 infected animals (HSV-1) | Pathology index HSV-1 infection (cumulative) (HSV-1) | number of survivors of 10 infected animals (HSV-2 [1]) | Pathology index HSV-2 infection (cumulative) (HSV-2 [1]) | efficacy of topical treatment (eye drops), in words (HSV-1) | efficacy of topical treatment (eye drops), in words (HSV-2 [1]) | efficacy of topical treatment, in words (HSV-2 [2]; HSV-2, right flank) | Pathology index (cumulative) (HSV-2 [2]; [3]) | effect of short treatment on infection, in words (HSV-2 [2]; HSV-2G, neck region, 2% by weight PEG isogel 2x a day for 2 days (4 treatments)) | Pathology index (cumulative) (HSV-2 [2]; HSV-2G, neck region, 2% by weight PEG isogel on skin 2x a day, day 0 to day 1) | efficacy of topical treatment with various formulations, in words (HSV-2 [2]; HSV-2G, neck region, formulations with 3% by weight active ingredient)
1 | Nc1nc2c(ncn2COCCO)c(=O)[nH]1 [Aciclovir, reference compound] | 7 | 33 | 1 | 90 |  |  |  |  |  |  | 
2 | Cc1nc(N(C)C(=O)Cc2ccc(-c3cc(F)ccc3F)cc2)sc1S(N)(=O)=O [N-[5-(Aminosulfonyl)-4-methyl-1,3-thiazol-2-yl]-2-(2′,5′-difluoro-1,1′-biphenyl-4-yl)-N-methylacetamide] | 10 | 0 | 4 | 42 | extensive efficacy | extensive efficacy |  |  |  |  | 
3 | Cc1nc(N(C)C(=O)Cc2ccc(-c3ccccc3F)cc2)sc1S(N)(=O)=O [N-[5-(Aminosulfonyl)-4-methyl-1,3-thiazol-2-yl]-2-(2′-fluoro[1,1′-biphenyl]-4-yl)-N-methylacetamide] |  |  |  |  |  |  | extensive efficacy | 0.2 |  |  | 
4 | Cc1nc(N(C)C(=O)Cc2ccc(-c3ccccn3)cc2)sc1S(N)(=O)=O [N-[5-(Aminosulfonyl)-4-methyl-1,3-thiazol-2-yl]-N-methyl-2-[4-(2-pyridyl)phenyl]acetamide] | 10 | 0 | 9 | 7 | extensive efficacy | extensive efficacy | extensive efficacy | 0.3 | completely suppressed | 0.3 | extensive efficacy
5 | Cc1nc(N(C)C(=O)Cc2ccc(-c3cccc(F)c3)cc2)sc1S(N)(=O)=O [N-[5-(aminosulfonyl)-4-methyl-1,3-thiazol-2-yl]-2-(3′-fluoro-1,1′-biphenyl-4-yl)-N-methylacetamide] |  |  |  |  |  |  | extensive efficacy | 0.3 |  |  | 
6 | Cc1nc(N(C)C(=O)Cc2ccc(-c3ccccc3)cc2)sc1S(N)(=O)=O [N-[5-Aminosulfonyl)-4-methyl-1,3-thiazol-2-yl]-2-[1,1′-biphenyl]-4-yl-N-methylacetamide] |  |  |  |  |  |  | extensive efficacy | 7.9 |  |  | 
